Our source for the EC50 values is US20200055839A1 (priority 2017, published 2020).

For one experiment, the system named is NL-RLuc virus. Put plainly: Inhibition of HIV replication (NL-RLuc virus, luciferase readout in MT-2 cells). The format is cell-based. To be noted: Human immunodeficiency virus 1, MT2, 120 h, MT-2 cells infected with NL-RLuc virus, 5 days of incubation, 10% FBS, at least 2 experiments. The essentials: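 MT-2 cells infected with NL4-3-derived virus carrying Renilla luciferase in place of part of nef, grown 5 days with serial compound dilutions in RPMI 1640/10% FBS. Virus growth read as luciferase expression. EC50 from median effect equation, at least 2 experiments.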
For the compound `CCC(C)(C)O[C@H](C(=O)O)c1c(C)ncc(-c2ccc(OCCc3ccccc3)cc2)c1N1CCC(C)(C)CC1` [Example 264, (S)-2-(4-(4,4-Dimethylpiperidin-1-yl)-2-methyl-5-(4-phenethoxyphenyl)pyridin-3-yl)-2-(tert-pentyloxy)acetic acid], the EC50 was 3 nM. Take `Cc1nc(-c2cncnc2)c(-c2ccc(OCCc3ccc(F)cc3)cc2)c(N2CCC(C)(C)CC2)c1[C@H](OC(C)(C)C)C(=O)O` [Example 39, (S)-2-(tert-Butoxy)-2-(4-(4,4-dimethylpiperidin-1-yl)-5-(4-(4-fluorophenethoxy)phenyl)-2-methyl-6-(pyrimidin-5-yl)pyridin-3-yl)acetic acid]: the EC50 was found to be 3 nM.

As to `Cc1nc(NCCc2c[nH]cn2)c(-c2ccc(OCCc3ccc(F)cc3)cc2)c(N2CCC(C)(C)CC2)c1[C@H](OC(C)(C)C)C(=O)O` [Example 32, (S)-2-(6-((2-(H-Imidazol-4-yl)ethyl)amino)-4-(4,4-dimethylpiperidin-1-yl)-5-(4-(4-fluorophenethoxy)phenyl)-2-methylpyridin-3-yl)-2-(tert-butoxy)acetic acid], the response was half-maximal at 5 nM (EC50). This EC50 lies about 1.7-fold higher than the previous one.

In the case of `COc1ccccc1CCOc1ncc(-c2cnc(C)c([C@H](OC(C)(C)C)C(=O)O)c2N2CCC(C)(C)CC2)cc1F` [Example 382, (2S)-2-(tert-butoxy)-2-[4-(4,4-dimethylpiperidin-1-yl)-5′-fluoro-6′-[2-(2-methoxyphenyl)ethoxy]-6-methyl-[3,3′-bipyridine]-5-yl]acetic acid], a half-maximal effect (EC50) was put at 5 nM. `COc1ccc(CCOc2ccc(-c3cnc(C)c([C@H](OC(C)(C)C)C(=O)O)c3N3CCC(C)(C)CC3)nc2)cc1C` [Example 291, (2S)-2-(tert-butoxy)-2-[4′-(4,4-dimethylpiperidin-1-yl)-5-[2-(4-methoxy-3-methylphenyl)ethoxy]-6′-methyl-[2,3′-bipyridine]-5′-yl]acetic acid] showed a concentration for a half-maximal effect (EC50) of 2 nM. The same measure, in the same setting: the figure for `Cc1ccc(Nc2nc(C)c([C@H](OC(C)(C)C)C(=O)O)c(N3CCC(C)(C)CC3)c2-c2ccc(OCCc3ccc(F)cc3)cc2)c(C)n1` [Example 85, (S)-2-(tert-Butoxy)-2-(4-(4,4-dimethylpiperidin-1-yl)-6-((2,6-dimethylpyridin-3-yl)amino)-5-(4-(4-fluorophenethoxy)phenyl)-2-methylpyridin-3-yl)acetic acid] is 3 nM; for `Cc1ncc(-c2ccc(OCCc3ccc(F)cc3)c(C(F)(F)F)c2)c(N2CCC(C)(C)CC2)c1[C@H](OC(C)(C)C)C(=O)O` [Example 241, (S)-2-(tert-Butoxy)-2-(4-(4,4-dimethylpiperidin-1-yl)-5-(4-(4-fluorophenethoxy)-3-(trifluoromethyl)phenyl)-2-methylpyridin-3-yl)acetic acid] it is 7 nM.

`Cc1ncc(-c2cnc(OCCCc3ccccc3)c(F)c2)c(N2CCC(C)(C)CC2)c1[C@H](OC(C)(C)C)C(=O)O` [Example 406, (2S)-2-(tert-butoxy)-2-[4-(4,4-dimethylpiperidin-1-yl)-5′-fluoro-6-methyl-6′-(3-phenylpropoxy)-[3,3′-bipyridine]-5-yl]acetic acid] registered a half-maximal effective concentration (EC50) of 4 nM.

`Cc1cc(-c2cnc(C)c([C@H](OC(C)(C)C)C(=O)O)c2N2CCC(C)(C)CC2)cnc1OCC(C)C` [Example 428, (S)-2-tert-Butoxy-2-(4-(4,4-dimethylpiperidin-1-yl)-6′-isobutoxy-5′,6-dimethyl-3, 3′-bipyridin-5-yl)acetic acid] yielded an EC50 of 7 nM.

In the case of `Cc1nc(C(=O)N[C@H]2CC[C@H](C)CC2)c(-c2ccc(OCCc3ccc(F)cc3)cc2)c(N2CCC(C)(C)CC2)c1[C@H](OC(C)(C)C)C(=O)O` [Example 12, (S)-2-(tert-Butoxy)-2-(4-(4,4-dimethylpiperidin-1-yl)-5-(4-(4-fluorophenethoxy)phenyl)-2-methyl-6-(((1 r, 4S)-4-methylcyclohexyl)carbamoyl)pyridin-3-yl)acetic acid], the concentration giving a half-maximal response (EC50) is 4 nM.

Regarding `Cc1nc(NCC2CCOCC2)c(-c2ccc(OCCc3ccc(F)cc3)cc2)c(N2CCC(C)(C)CC2)c1[C@H](OC(C)(C)C)C(=O)O` [Example 44, (S)-2-(tert-Butoxy)-2-(4-(4,4-dimethylpiperidin-1-yl)-5-(4-(4-fluorophenethoxy)phenyl)-2-methyl-6-(((tetrahydro-2H-pyran-4-yl)methyl)amino)pyridin-3-yl)acetic acid], the EC50 is 3 nM. The EC50 values of the last two compounds are within 1.5-fold of each other. Still for that read-out and setting: then `Cc1cccc(CCOc2ccc(-c3cnc(C)c([C@H](OC(C)(C)C)C(=O)O)c3N3CCC(C)(C)CC3)cc2)c1` [Example 365, (2S)-2-(tert-butoxy)-2-[4-(4,4-dimethylpiperidin-1-yl)-2-methyl-5-{4-[2-(3-methylphenyl)ethoxy]phenyl}pyridin-3-yl]acetic acid], with 2 nM; and `COc1ccc(-c2cnc(C)c([C@H](OC(C)(C)C)C(=O)O)c2N2CCC(C)(C)CC2)c(F)c1F` [Example 149, (2S)-2-(tert-Butoxy)-2-[5-(2,3-difluoro-4-methoxyphenyl)-4-(4,4-dimethylpiperidin-1-yl)-2-methylpyridin-3-yl]acetic acid], with 6 nM. The compound `Cc1ncc(-c2ccc(OCCc3ccccc3F)c(F)c2)c(N2CCC(C)(C)CC2)c1[C@H](OC(C)(C)C)C(=O)O` [Example 128, (S)-2-(tert-Butoxy)-2-(4-(4,4-dimethylpiperidin-1-yl)-5-(3-fluoro-4-(2-fluorophenethoxy)phenyl)-2-methylpyridin-3-yl)acetic acid] came in with an EC50 of 2 nM.

Consider `COc1cc(F)c(F)c(-c2cnc(C)c([C@H](OC(C)(C)C)C(=O)O)c2N2CCC(C)(C)CC2)c1` [Example 157, (2S)-2-(tert-Butoxy)-2-[5-(2,3-difluoro-5-methoxyphenyl)-4-(4,4-dimethylpiperidin-1-yl)-2-methylpyridin-3-yl]acetic acid], for which the half-maximal effective concentration (EC50) amounted to 22 nM. On the same count and under the same terms, then `Cc1ncc(-c2ccc(OCCC(C)C)cn2)c(N2CCC(C)(C)CC2)c1[C@H](OC(C)(C)C)C(=O)O` [Example 315, (2S)-2-(tert-butoxy)-2-[4′-(4,4-dimethylpiperidin-1-yl)-6′-methyl-5-(3-methylbutoxy)-[2,3′-bipyridine]-5′-yl]acetic acid], with 2 nM; and `Cc1nc(-c2cn[nH]c2)c(-c2ccc(OCCc3ccc(F)cc3)cc2)c(N2CCC(C)(C)CC2)c1[C@H](OC(C)(C)C)C(=O)O` [Example 51, (S)-2-(tert-Butoxy)-2-(4-(4,4-dimethylpiperidin-1-yl)-5-(4-(4-fluorophenethoxy)phenyl)-2-methyl-6-(1H-pyrazol-4-yl)pyridin-3-yl)acetic acid], with 5 nM; and `Cc1nc(C#N)c([C@H](OC(C)(C)C)C(=O)O)c(N2CCC(C)(C)CC2)c1-c1ccc(OCCc2ccc(F)cc2)cc1` [Example 5, (S)-2-(tert-Butoxy)-2-(2-cyano-4-(4,4-dimethylpiperidin-1-yl)-5-(4-(4-fluorophenethoxy)phenyl)-6-methylpyridin-3-yl)acetic acid], with 7 nM. The same measure, in the same setting: then `Cc1ncc(-c2ccc(OCCc3cccc(F)c3)nc2)c(N2CCC(C)(C)CC2)c1[C@H](OC(C)(C)C)C(=O)O` [Example 255, (S)-2-(tert-Butoxy)-2-(4-(4,4-dimethylpiperidin-1-yl)-6′-(3-fluorophenethoxy)-6-methyl-[3,3′-bipyridin]-5-yl)acetic acid], with 0.8 nM. On the same count and under the same terms, then `Cc1ncc(-c2ccc(OCCC(C)C)nc2)c(N2CCC(C)(C)CC2)c1[C@H](OC(C)(C)C)C(=O)O` [Example 427, (S)-2-tert-Butoxy-2-(4-(4,4-dimethylpiperidin-1-yl)-6′-(isopentyloxy)-6-methyl-3, 3′-bipyridin-5-yl)acetic acid], with 2 nM; and `Cc1nc(C#N)c(-c2ccc(CN(C)c3ncnc4c3oc3ccccc34)cc2)c(N2CCC(C)(C)CC2)c1[C@H](OC(C)(C)C)C(=O)O` [Example 22, (2S)-2-(tert-Butoxy)-2-[6-cyano-4-(4,4-dimethylpiperidin-1-yl)-2-methyl-5-(4-{[methyl({8-oxa-3,5-diazatricyclo[7.4.0.0^2,7]trideca-1 (9), 2(7), 3,5,10, 12-hexaen-6-yl})amino]methyl}phenyl)pyridin-3-yl]acetic acid], with 3 nM; and `Cc1nc(Nc2ccncc2F)c(-c2ccc(OCCc3ccc(F)cc3)cc2)c(N2CCC(C)(C)CC2)c1[C@H](OC(C)(C)C)C(=O)O` [Example 93, (S)-2-(tert-Butoxy)-2-(4-(4,4-dimethylpiperidin-1-yl)-5-(4-(4-fluorophenethoxy)phenyl)-6-((3-fluoropyridin-4-yl)amino)-2-methylpyridin-3-yl)acetic acid], with 12 nM. `Cc1nc(N)c(-c2cc(F)c(F)c(F)c2)c(N2CCC(C)(C)CC2)c1[C@H](OC(C)(C)C)C(=O)O` [Example 58, (S)-2-(6-Amino-4-(4,4-dimethylpiperidin-1-yl)-2-methyl-5-(3,4,5-trifluorophenyl)pyridin-3-yl)-2-(tert-butoxy)acetic acid] returned an EC50 of 18 nM. Compared with the last compound, the EC50 is about 1.5-fold higher. Same read-out and setting: the figure for `Cc1cccc(-c2cnc(C)c([C@H](OC(C)(C)C)C(=O)O)c2N2CCC(C)(C)CC2)c1` [Example 177, (2S)-2-(tert-Butoxy)-2-[4-(4,4-dimethylpiperidin-1-yl)-2-methyl-5-(3-methylphenyl)pyridin-3-yl]acetic acid] is 12 nM; for `CCCOc1ncc(-c2cnc(C)c([C@H](OC(C)(C)C)C(=O)O)c2N2CCC(C)(C)CC2)cc1F` [Example 389, (2S)-2-(tert-butoxy)-2-[4-(4,4-dimethylpiperidin-1-yl)-5′-fluoro-6-methyl-6′-propoxy-[3,3′-bipyridine]-5-yl]acetic acid] it is 3 nM.

Still in this experiment, the particulars now being: MT-2 cells infected with NL-RLuc virus, 5 days of incubation, 10% FBS, at least 2 experiments.
As to `Cc1nc(Nc2ccnc(F)c2)c(-c2ccc(OCCc3ccc(F)cc3)cc2)c(N2CCC(C)(C)CC2)c1[C@H](OC(C)(C)C)C(=O)O` [Example 95, (S)-2-(tert-Butoxy)-2-(4-(4,4-dimethylpiperidin-1-yl)-5-(4-(4-fluorophenethoxy)phenyl)-6-((2-fluoropyridin-4-yl)amino)-2-methylpyridin-3-yl)acetic acid], the 50% effective concentration (EC50) was determined as 8 nM.

Broadly, the EC50 is the concentration at which the effect is half-maximal.
